Series [1] is described as follows: Max solubility of chemicals for establishing the GARD input concentration. To be noted: reference compounds used during assay development (Table 1).
The next series deals with CD86. As to the kind of experiment: CD86 expression of MUTZ-3 cells following chemical stimulation (flow cytometry). To be noted: MUTZ-3, 24 h stimulation, compared with vehicle/unstimulated cells, student's t-test p<0.05. It counts as cell-based, human.
The conditions of series [2]: occupational asthma and allergic contact dermatitis, ref. [64]; cited from earlier work.

Each structure is given as a SMILES string.

The values below come from patent US20170285010A1, “Analytical Methods and Arrays for Use in the Same” (SENZAGEN AB, priority 2014, published 2017).

Method for CD86: CD86 expression of MUTZ-3 cells following chemical stimulations. […] Statistical significance was determined by student's t-test, comparing each stimulation with its corresponding vehicle, with p<0.05 indicated by *.
Maintenance of cells, chemical stimulation of MUTZ-3 and all subsequent isolation of mRNA and preparation of cDNA were performed as previously described [41,42]. In short, a phenotypic control of MUTZ-3 was performed using flow cytometry prior to chemical stimulation to ensure cells were in an immature state. The following FITC-conjugated mouse monoclonal antibodies (mAbs) were used: CD1a (DakoCytomation, Glostrup, Denmark), CD34, CD86, HLA-DR, IgG1 (BD Biosciences, Franklin Lakes, N.J.). The following PE-conjugated mouse monoclonal antibodies were used: CD14 (DakoCytomation), CD54, CD80, IgG1 (BD Biosciences). Cell viability was determined using Propidium Iodide (BD Biosciences) staining. Samples were run on FACSCanto II instrument. Data was acquired using FACS Diva software (BD Biosciences) and analyzed using FCS Express V4 (De Novo Software, Los Angeles, Calif.). Gating was performed to exclude cell debris and non-viable cells based on forward- and side-scattering properties and quadrants established using isotype-controls. During chemical exposure, cells were seeded at 200.000 cells/ml in 24-well plates and exposed to chemical compound at the GARD input concentration. Stimulated cells were harvested after 24 h incubation at 37° C., 5% CO2 and RNA was isolated with TRIzol® reagent (Life Technologies, Carlsbad, Calif.) using standardized protocols provided by the manufacturer. In parallel, a control of the maturity state of the cells was performed by flow cytometric analysis of CD86.
Prior to chemical challenge, cells were quality controlled by measuring the cellular expression of common myeloid and dendritic cell markers using flow cytometry. These markers included CD1a, CD14, CD34, CD54, CD80, CD86 and HLA-DR.

Turning to `[Cl][Pt-2]([Cl])([Cl])([Cl])([Cl])[Cl].[NH4+].[NH4+]` [Ammonium hexachloroplatinate], the Max solubility in series [1] stood at 35 µM. Also, the “Chemically induced up-regulation of CD86” value with CD86 is given as “statistically significant”.
In the case of `O=c1n(CC2CO2)c(=O)n(CC2CO2)c(=O)n1CC1CO1` (stereo not drawn) [triglycidylisocyanurate], the “Sensitization in humans (OA, ACD)” value in series [2] is “cause both OA and ACD”.
